In PubChem BioAssay AID1963966 (Molecular Pharmacology Branch, DTP, NCI, 2024):

System: 935938-334-R-J1-PDC spheroids with HUVEC/MSC, viability
Assay: Anticancer human tumor 935938-334-R-J1-PDC patient-derived small intestine adenocarcinoma cell line growth inhibition [PI3K]
Settings: for viability, T/C: stronger effect = lower value
How it was run: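 Multi-cell spheroids combine tumor cells with HUVEC and human MSCs, treated with targeted agents alone or with inavolisib, alpelisib, duvelisib or copanlisib. Concentrations fall in half-log steps from at or near clinical Cmax, or from 10 microM where Cmax is unknown; viability read-out.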

[1] = curve of first compound, second compound 0.00316 µM
[2] = curve of first compound, second compound 0.01 µM
[3] = curve of first compound, second compound 0.0316 µM
[4] = curve of first compound, second compound 0.1 µM
[5] = curve of first compound, second compound 0.316 µM
[6] = curve of first compound, second compound 1 µM
[7] = second compound 0.00316 µM, first compound 0.0316 µM
[8] = second compound 0.00316 µM, first compound 0.1 µM
[9] = second compound 0.01 µM, first compound 0.0316 µM
[10] = second compound 0.01 µM, first compound 0.1 µM
[11] = second compound 0.0316 µM, first compound 0.0316 µM
[12] = second compound 0.0316 µM, first compound 0.1 µM
[13] = second compound 0.1 µM, first compound 0.0316 µM
[14] = second compound 0.1 µM, first compound 0.1 µM
[15] = second compound 0.316 µM, first compound 0.0316 µM
[16] = second compound 0.316 µM, first compound 0.1 µM
[17] = second compound 1 µM, first compound 0.0316 µM
[18] = second compound 1 µM, first compound 0.1 µM
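Further: compound exposure lasted seven days before viability was read.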
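Wherever viability, T/C is given: percent of vehicle DMSO treated spheroid viability so 100% = untreated.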

CC(=O)c1c(C)c2cnc(Nc3ccc(N4CCNCC4)cn3)nc2n(C2CCCC2)c1=O + CC(Nc1ccc2c(c1)OCCn1cc(N3C(=O)OCC3C(F)F)nc1-2)C(N)=O
IC50 [1]: 0.0623 µM | IC50 [2]: 0.0617 µM | IC50 [3]: 0.059 µM | IC50 [4]: 0.0472 µM | IC50 [5]: 0.0499 µM | IC50 [6]: 0.0262 µM | viability, T/C (second compound 0.00316 µM, first compound 0.000316 µM): 82.7% | viability, T/C (second compound 0.00316 µM, first compound 0.001 µM): 66% | viability, T/C (second compound 0.00316 µM, first compound 0.00316 µM): 97.2% | viability, T/C (second compound 0.00316 µM, first compound 0.01 µM): 90.4% | viability, T/C [7]: 95.5% | viability, T/C [8]: 24.6% | viability, T/C (second compound 0.01 µM, first compound 0.000316 µM): 81.3% | viability, T/C (second compound 0.01 µM, first compound 0.001 µM): 70.7% | viability, T/C (second compound 0.01 µM, first compound 0.00316 µM): 92.6% | viability, T/C (second compound 0.01 µM, first compound 0.01 µM): 86.7% | viability, T/C [9]: 82.7% | viability, T/C [10]: 26.5% | viability, T/C (second compound 0.0316 µM, first compound 0.000316 µM): 67.7% | viability, T/C (second compound 0.0316 µM, first compound 0.001 µM): 65.7% | viability, T/C (second compound 0.0316 µM, first compound 0.00316 µM): 112% | viability, T/C (second compound 0.0316 µM, first compound 0.01 µM): 81.4% | viability, T/C [11]: 98.2% | viability, T/C [12]: 20.3% | viability, T/C (second compound 0.1 µM, first compound 0.000316 µM): 76.2% | viability, T/C (second compound 0.1 µM, first compound 0.001 µM): 81.7% | viability, T/C (second compound 0.1 µM, first compound 0.00316 µM): 72.4% | viability, T/C (second compound 0.1 µM, first compound 0.01 µM): 91.3% | viability, T/C [13]: 66.4% | viability, T/C [14]: 19.3% | viability, T/C (second compound 0.316 µM, first compound 0.000316 µM): 63.5% | viability, T/C (second compound 0.316 µM, first compound 0.001 µM): 65.1% | viability, T/C (second compound 0.316 µM, first compound 0.00316 µM): 74.8% | viability, T/C (second compound 0.316 µM, first compound 0.01 µM): 77.2% | viability, T/C [15]: 70.7% | viability, T/C [16]: 19.5% | viability, T/C (second compound 1 µM, first compound 0.000316 µM): 47.9% | viability, T/C (second compound 1 µM, first compound 0.001 µM): 57.5% | viability, T/C (second compound 1 µM, first compound 0.00316 µM): 82.2% | viability, T/C (second compound 1 µM, first compound 0.01 µM): 67.3% | viability, T/C [17]: 47.3% | viability, T/C [18]: 20.6%

CC(Cn1ccc(-c2ccc(C#N)c(Cl)c2)n1)NC(=O)c1cc(C(C)O)[nH]n1 (configuration not stated)
viability, T/C (compound 0.0316 µM): 90.6% [middle of 4 runs] | viability, T/C (compound 0.316 µM): 101% [middle of 4 runs] | IC50 (curve of compound): > 10 µM

C[C@@H](NC(=O)c1ncnc(N)c1Cl)c1ncc(C(=O)Nc2cc(C(F)(F)F)c(Cl)cn2)s1 + CC(Nc1ccc2c(c1)OCCn1cc(N3C(=O)OCC3C(F)F)nc1-2)C(N)=O
IC50 [1]: > 10 µM | IC50 [2]: > 10 µM | IC50 [3]: > 10 µM | IC50 [4]: > 10 µM | IC50 [5]: 9.36 µM | IC50 [6]: 9.57 µM | viability, T/C [7]: 97.2% | viability, T/C [8]: 92.4% | viability, T/C (second compound 0.00316 µM, first compound 0.316 µM): 104% | viability, T/C (second compound 0.00316 µM, first compound 1 µM): 110% | viability, T/C (second compound 0.00316 µM, first compound 3.16 µM): 87.5% | viability, T/C (second compound 0.00316 µM, first compound 10 µM): 99.4% | viability, T/C [9]: 95.3% | viability, T/C [10]: 88.6% | viability, T/C (second compound 0.01 µM, first compound 0.316 µM): 105% | viability, T/C (second compound 0.01 µM, first compound 1 µM): 107% | viability, T/C (second compound 0.01 µM, first compound 3.16 µM): 111% | viability, T/C (second compound 0.01 µM, first compound 10 µM): 90.5% | viability, T/C [11]: 94.8% | viability, T/C [12]: 88.8% | viability, T/C (second compound 0.0316 µM, first compound 0.316 µM): 92.7% | viability, T/C (second compound 0.0316 µM, first compound 1 µM): 113% | viability, T/C (second compound 0.0316 µM, first compound 3.16 µM): 99.6% | viability, T/C (second compound 0.0316 µM, first compound 10 µM): 80.3% | viability, T/C [13]: 89% | viability, T/C [14]: 98.4% | viability, T/C (second compound 0.1 µM, first compound 0.316 µM): 100% | viability, T/C (second compound 0.1 µM, first compound 1 µM): 107% | viability, T/C (second compound 0.1 µM, first compound 3.16 µM): 92.6% | viability, T/C (second compound 0.1 µM, first compound 10 µM): 85.6% | viability, T/C [15]: 108% | viability, T/C [16]: 111% | viability, T/C (second compound 0.316 µM, first compound 0.316 µM): 83.7% | viability, T/C (second compound 0.316 µM, first compound 1 µM): 79% | viability, T/C (second compound 0.316 µM, first compound 3.16 µM): 104% | viability, T/C (second compound 0.316 µM, first compound 10 µM): 47.2% | viability, T/C [17]: 66.7% | viability, T/C [18]: 95.4% | viability, T/C (second compound 1 µM, first compound 0.316 µM): 78.4% | viability, T/C (second compound 1 µM, first compound 1 µM): 86.5% | viability, T/C (second compound 1 µM, first compound 3.16 µM): 90% | viability, T/C (second compound 1 µM, first compound 10 µM): 48.7%
